Test results: BigSolDB 2.1

O=[N+]([O-])c1ncccc1O
solubility (mole fraction)
Conditions | in THF | in acetone | in acetonitrile | in ethanol | in ethyl acetate | in isopropanol | in methanol | in n-hexane | in n-propanol | in water
278.15 K | 0.213 | 0.157 | 0.113 | 0.0236 | 0.108 | 0.0158 | 0.0395 | 0.00055 | 0.0299 | 0.00083
283.15 K | 0.243 | 0.184 | 0.141 | 0.0334 | 0.128 | 0.0226 | 0.0551 | 0.00077 | 0.0391 | 0.00107
288.15 K | 0.274 | 0.219 | 0.171 | 0.0482 | 0.151 | 0.0318 | 0.0807 | 0.00105 | 0.0523 | 0.00149
293.15 K | 0.312 | 0.259 | 0.207 | 0.0653 | 0.181 | 0.0442 | 0.111 | 0.00144 | 0.0716 | 0.0021
298.15 K | 0.35 | 0.304 | 0.247 | 0.0924 | 0.215 | 0.0621 | 0.153 | 0.00192 | 0.0947 | 0.00283
303.15 K | 0.396 | 0.354 | 0.299 | 0.128 | 0.254 | 0.0863 | 0.206 | 0.00266 | 0.127 | 0.00393
308.15 K | 0.446 | 0.41 | 0.359 | 0.173 | 0.301 | 0.12 | 0.271 | 0.00373 | 0.17 | 0.00544
313.15 K | 0.502 | 0.474 | 0.428 | 0.232 | 0.357 | 0.165 | 0.352 | 0.00522 | 0.224 | 0.00753
318.15 K | 0.57 | 0.544 | 0.502 | 0.306 | 0.423 | 0.224 | 0.446 | 0.00736 | 0.292 | 0.0109
